Experimental data as given in patent US12091425B2 (AMGEN INC., priority 2016, dated 2024).

Tests used:
[1] = tested on: OPM-2 human multiple myeloma cell line; experiment: Cell Viability Assay (OPM-2 10 FBS); assay type: cell-based; settings: Homo sapiens, OPM-2, 16 h, OPM-2 cells, 16 h, CellTiter-Glo
Summary of the method: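 IC50 from 4-parameter logistic fit of CellTiter-Glo luminescence. 3000 cells/well, 10% FBS medium, serial compound dilutions, 16 h, 37 °C/5% CO2; read 25 min post-reagent.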

[2] = biological target: T1, Mcl-1/Bim interaction, recombinant human Mcl-1 (171-327) (Homo sapiens, UniProt Q07820); experiment: Cell free Mcl-1: Bim Affinity Assay (Mcl-1 HTRF); assay type: binding
T1 construct: made in house
Summary of the method: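 Read-out is time-resolved FRET after overnight incubation, using a biotin-labelled peptide from human Bim (51-76) as the binding partner; IC50 was derived from competition curves.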

[3] = TR-FRET, 0.1 nM Mcl-1 (171-327), 0.05 nM biotin-Bim (51-76)
[4] = cell free Mcl-1:Bim TR-FRET, recombinant human Mcl-1 (171-327)

T1 sequence (Q07820 171-327): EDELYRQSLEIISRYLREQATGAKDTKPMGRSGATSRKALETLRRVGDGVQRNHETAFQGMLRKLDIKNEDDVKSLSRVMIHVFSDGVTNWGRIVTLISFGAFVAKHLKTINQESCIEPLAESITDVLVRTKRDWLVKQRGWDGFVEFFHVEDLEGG

SMILES | IC50 [1] | IC50 [2, 3] | IC50 [2, 4]
C[C@@H]1CC/C=C/[C@H](OCC(=O)O)[C@@H]2CC[C@H]2CN2C[C@@]3(CCCc4cc(Cl)ccc43)COc3ccc(cc32)C(=O)NS1(=O)=O [Example 407, (((1S,3′R,6′R,7′S,8′E,12′R)-6-chloro-12′-methyl-13′,13′-dioxido-15′-oxo-3,4-dihydro-2H-spiro[naphthalene-1,22′-[20]oxa[13]thia[1,14]diazatetracyclo[14.7.2.0^3,6.0^19,24]pentacosa [8,16,18,24]tetraen]-7′-yl)oxy)acetic acid] | 14400 nM | 0.127 nM | –
COC(=O)CO[C@H]1/C=C/CC[C@@H](C)S(=O)(=O)NC(=O)c2ccc3c(c2)N(C[C@@H]2CC[C@H]21)C[C@@]1(CCCc2cc(Cl)ccc21)CO3 [Example 408, methyl(((1S,3′R,6′R,7′S,8′E,12′R)-6-chloro-12′-methyl-13′,13′-dioxido-15′-oxo-3,4-dihydro-2H-spiro[naphthalene-1,22′-[20]oxa[13]thia[1,14]diazatetracyclo[14.7.2.0^3,6.0^19,24]pentacosa [8,16,18,24]tetraen]-7′-yl)oxy)acetate] | 98.8 nM | 0.312 nM | –
Cc1noc(C)c1CO[C@H]1/C=C/CC[C@@H](C)S(=O)(=O)NC(=O)c2ccc3c(c2)N(C[C@@H]2CC[C@H]21)C[C@@]1(CCCc2cc(Cl)ccc21)CO3 [Example 409, (1S,3′R,6′R,7′S,8′E,12′R)-6-chloro-7′-((3,5-dimethyl-4-isoxazolyl)methoxy)-12′-methyl-3,4-dihydro-2H,15′H-spiro[naphthalene-1,22′-[20]oxa[13]thia[1,14]diazatetracyclo[14.7.2.0^3,6.0^19,24]pentacosa [8,16,18,24]tetraen]-15′-one 13′,13′-dioxide] | 751 nM | 1.27 nM | –
C[C@@H]1CC/C=C/[C@H](OCc2ncn(C)n2)[C@@H]2CC[C@H]2CN2C[C@@]3(CCCc4cc(Cl)ccc43)COc3ccc(cc32)C(=O)NS1(=O)=O [Example 410, (1S,3′R,6′R,7′S,8′E,12′R)-6-chloro-12′-methyl-7′-((l-methyl-1H-1,2,4-triazol-3-yl)methoxy)-3,4-dihydro-2H,15′H-spiro[naphthalene-1,22′-[20]oxa[13]thia[1,14]diazatetracyclo[14.7.2.0^3,6.0^19,24]pentacosa [8,16,18,24]tetraen]-15′-one 13′,13′-dioxide] | 208 nM | 0.144 nM | –
Cc1cc(CO[C@H]2/C=C/CC[C@@H](C)S(=O)(=O)NC(=O)c3ccc4c(c3)N(C[C@@H]3CC[C@H]32)C[C@@]2(CCCc3cc(Cl)ccc32)CO4)no1 [Example 411, (1S,3′R,6′R,7′S,8′E,12′R)-6-chloro-12′-methyl-7′-((5-methyl-3-isoxazolyl)methoxy)-3,4-dihydro-2H,15′H-spiro[naphthalene-1,22′-[20]oxa[13]thia[1,14]diazatetracyclo[14.7.2.0^3,6.0^19,24]pentacosa [8,16,18,24]tetraen]-15′-one 13′,13′-dioxide] | 2410 nM | 1.29 nM | –
Cc1nnc(CO[C@H]2/C=C/CC[C@@H](C)S(=O)(=O)NC(=O)c3ccc4c(c3)N(C[C@@H]3CC[C@H]32)C[C@@]2(CCCc3cc(Cl)ccc32)CO4)o1 [Example 412, (1S,3′R,6′R,7′S,8′E,12′R)-6-chloro-12′-methyl-7′-((5-methyl-1,3,4-oxadiazol-2-yl)methoxy)-3,4-dihydro-2H,15′H-spiro[naphthalene-1,22′-[20]oxa[13]thia[1,14]diazatetracyclo[14.7.2.0^3,6.0^19,24]pentacosa [8,16,18,24]tetraen]-15′-one 13′,13′-dioxide] | 325 nM | 0.267 nM | –
C[C@@H]1CC/C=C/[C@H](O[C@H]2CCOC2=O)[C@@H]2CC[C@H]2CN2C[C@@]3(CCCc4cc(Cl)ccc43)COc3ccc(cc32)C(=O)NS1(=O)=O [Example 413] | 374 nM | 0.358 nM | –
C[C@@H]1CC/C=C/[C@H](OCc2cnnn2C)[C@@H]2CC[C@H]2CN2C[C@@]3(CCCc4cc(Cl)ccc43)COc3ccc(cc32)C(=O)NS1(=O)=O [Example 416, (1S,3′R,6′R,7′S,8′E,12′R)-6-chloro-12′-methyl-7′-((1-methyl-1H-1,2,3-triazol-5-yl)methoxy)-3,4-dihydro-2H,15′H-spiro[naphthalene-1,22′-[20]oxa[13]thia[1,14]diazatetracyclo[14.7.2.0^3,6.0^19,24]pentacosa [8,16,18,24]tetraen]-15′-one 13′,13′-dioxide] | 1060 nM | 0.377 nM | –
C[C@@H]1CC/C=C/[C@H](OCc2cn(C)nn2)[C@@H]2CC[C@H]2CN2C[C@@]3(CCCc4cc(Cl)ccc43)COc3ccc(cc32)C(=O)NS1(=O)=O [Example 417, (1S,3′R,6′R,7′S,8′E,12′R)-6-chloro-12′-methyl-7′-((1-methyl-1H-1,2,3-triazol-4-yl)methoxy)-3,4-dihydro-2H,15′H-spiro[naphthalene-1,22′-[20]oxa[13]thia[1,14]diazatetracyclo[14.7.2.0^3,6.0^19,24]pentacosa [8,16,18,24]tetraen]-15′-one 13′,13′-dioxide] | 834 nM | 0.214 nM | –
C[C@@H]1CC/C=C/[C@H](OCCN2CCOCC2)[C@@H]2CC[C@H]2CN2C[C@@]3(CCCc4cc(Cl)ccc43)COc3ccc(cc32)C(=O)NS1(=O)=O [Example 418, (1S,3′R,6′R,7′S,8′E,12′R)-6-chloro-12′-methyl-7′-(2-(4-morpholinyl)ethoxy)-3,4-dihydro-2H,15′H-spiro[naphthalene-1,22′-[20]oxa[13]thia[1,14]diazatetracyclo[14.7.2.0^3,6.0^19,24]pentacosa [8,16,18,24]tetraen]-15′-one 13′,13′-dioxide] | 111 nM | 0.275 nM | –
CC[C@@H]1CC/C=C/[C@H](OCc2ncn(C)n2)[C@@H]2CC[C@H]2CN2C[C@@]3(CCCc4cc(Cl)ccc43)COc3ccc(cc32)C(=O)NS1(=O)=O [Example 423, (1S,3′R,6′R,7′S,8′E,12′R)-6-chloro-12′-ethyl-7′-((1-methyl-1H-1,2,4-triazol-3-yl)methoxy)-3,4-dihydro-2H,15′H-spiro[naphthalene-1,22′-[20]oxa[13]thia[1,14]diazatetracyclo[14.7.2.0^3,6.0^19,24]pentacosa [8,16,18,24]tetraen]-15′-one 13′,13′-dioxide] | 198 nM | 0.249 nM | –
CC[C@@H]1CC/C=C/[C@H](OC(C)=O)[C@@H]2CC[C@H]2CN2C[C@@]3(CCCc4cc(Cl)ccc43)COc3ccc(cc32)C(=O)NS1(=O)=O [Example 426, (1S,3′R,6′R,7′S,8′E,12′R)-6-chloro-12′-ethyl-13′,13′-dioxido-15′-oxo-3,4-dihydro-2H-spiro[naphthalene-1,22′-[20]oxa[13]thia[1,14]diazatetracyclo[14.7.2.0^3,6.0^19,24]pentacosa [8,16,18,24]tetraen]-7′-yl acetate] | 941 nM | 2.1 nM | –
C[C@@H]1[C@@H](C)C/C=C/[C@H](OCCCO)[C@@H]2CC[C@H]2CN2C[C@@]3(CCCc4cc(Cl)ccc43)COc3ccc(cc32)C(=O)NS1(=O)=O [Example 509, (1S,3′R,6′R,7′S,8′E,11′S,12′R)-6-chloro-7′-(3-hydroxypropoxy)-11′,12′-dimethyl-3,4-dihydro-2H,15′H-spiro[naphthalene-1,22′-[20]oxa[13]thia[1,14]diazatetracyclo[14.7.2.0^3,6.0^19,24]pentacosa [8,16,18,24]tetraen]-15′-one 13′,13′-dioxide] | 235 nM | – | 0.188 nM
C[C@@H]1[C@@H](C)C/C=C/[C@H](OC[C@H]2CCCO2)[C@@H]2CC[C@H]2CN2C[C@@]3(CCCc4cc(Cl)ccc43)COc3ccc(cc32)C(=O)NS1(=O)=O [Example 510, (1S,3′R,6′R,7′S,8′E,11′S,12′R)-6-chloro-11′,12′-dimethyl-7′-((2R)-tetrahydro-2-furanylmethoxy)-3,4-dihydro-2H,15′H-spiro[naphthalene-1,22′-[20]oxa[13]thia[1,14]diazatetracyclo[14.7.2.0^3,6.0^19,24]pentacosa [8,16,18,24]tetraen]-15′-one 13′,13′-dioxide] | 587 nM | – | 1.25 nM
C[C@@H]1[C@@H](C)C/C=C/[C@H](OCCCl)[C@@H]2CC[C@H]2CN2C[C@@]3(CCCc4cc(Cl)ccc43)COc3ccc(cc32)C(=O)NS1(=O)=O [Example 511, (1S,3′R,6′R,7′S,8′E,11′S,12′R)-6-chloro-7′-(2-chloroethoxy)-11′,12′-dimethyl-3,4-dihydro-2H,15′H-spiro[naphthalene-1,22′-[20]oxa[13]thia[1,14]diazatetracyclo[14.7.2.0^3,6.0^19,24]pentacosa [8,16,18,24]tetraen]-15′-one 13′,13′-dioxide] | 311 nM | – | 1.5 nM
COCCCO[C@H]1/C=C/C[C@H](C)[C@@H](C)S(=O)(=O)NC(=O)c2ccc3c(c2)N(C[C@@H]2CC[C@H]21)C[C@@]1(CCCc2cc(Cl)ccc21)CO3 [Example 512, (1S,3′R,6′R,7′S,8′E,11′S,12′R)-6-chloro-7′-(3-methoxypropoxy)-11′,12′-dimethyl-3,4-dihydro-2H,15′H-spiro[naphthalene-1,22′-[20]oxa[13]thia[1,14]diazatetracyclo[14.7.2.0^3,6.0^19,24]pentacosa [8,16,18,24]tetraen]-15′-one 13′,13′-dioxide] | 362 nM | – | 0.998 nM
C[C@@H]1[C@@H](C)C/C=C/[C@H](OCCN(C)C)[C@@H]2CC[C@H]2CN2C[C@@]3(CCCc4cc(Cl)ccc43)COc3ccc(cc32)C(=O)NS1(=O)=O [Example 513, (1S,3′R,6′R,7′S,8′E,11′S,12′R)-6-chloro-7′-(2-(dimethylamino)ethoxy)-11′,12′-dimethyl-3,4-dihydro-2H,15′H-spiro[naphthalene-1,22′-[20]oxa[13]thia[1,14]diazatetracyclo[14.7.2.0^3,6.0^19,24]pentacosa [8,16,18,24]tetraen]-15′-one 13′,13′-dioxide] | 184 nM | – | 0.395 nM
